In brackets after ≈: the same amount, converted by molar mass.
Columns and labels:
Assay type in all cases: functional
[1] = tested on: Staphylococcus epidermidis; assay: Antibacterial activity against methicillin-susceptible Staphylococcus epidermidis 3226 assessed as inhibition of bacterial growth incubated for 18 to 24 hrs by broth microdilution method
[2] = Antioxidant activity assessed as DPPH scavenging activity by measuring mmol of Trolox equivalent antioxidant capacity incubated for 40 mins
Enterococcus faecalis [3] = assay: Antibacterial activity against linezolid and […] 4150 assessed as inhibition of bacterial growth incubated for 18 to 24 hrs by broth microdilution method
[4] = Antioxidant activity assessed as ABTS scavenging activity by measuring mmol of Trolox equivalent antioxidant capacity incubated for 6 mins
Enterococcus faecium = assay: Antibacterial activity against linezolid and vancomycin-resistant Enterococcus faecium VRE2 assessed as inhibition of bacterial growth incubated for 18 to 24 hrs by broth microdilution method
Enterococcus faecalis [5] = assay: Antibacterial activity against Enterococcus faecalis ATCC 29212 assessed as inhibition of bacterial growth incubated for 18 to 24 hrs by broth microdilution method
Staphylococcus aureus [6] = assay: Antibacterial activity against methicillin-susceptible Staphylococcus aureus 39249 assessed as inhibition of bacterial growth incubated for 18 to 24 hrs by broth microdilution method
[7] = tested on: Staphylococcus epidermidis; assay: Antibacterial activity against linezolid and methicillin-resistant Staphylococcus epidermidis G1027 assessed as inhibition of bacterial growth incubated for 18 to 24 hrs by broth microdilution method
Staphylococcus aureus [8] = assay: Antibacterial activity against methicillin-susceptible Staphylococcus aureus 69856 assessed as inhibition of bacterial growth incubated for 18 to 24 hrs by broth microdilution method
Staphylococcus aureus [9] = assay: Antibacterial activity against Staphylococcus aureus ATCC 29213 assessed as inhibition of bacterial growth incubated for 18 to 24 hrs by broth microdilution method
Staphylococcus aureus [10] = assay: Antibacterial activity against methicillin-resistant Staphylococcus aureus 44674 assessed as inhibition of bacterial growth incubated for 18 to 24 hrs by broth microdilution method
Staphylococcus aureus [11] = assay: Antibacterial activity against linezolid and methicillin-resistant Staphylococcus aureus SAU-1 assessed as inhibition of bacterial growth incubated for 18 to 24 hrs by broth microdilution method
Staphylococcus hominis = assay: Antibacterial activity against linezolid and methicillin-resistant Staphylococcus hominis alpha26 assessed as inhibition of bacterial growth incubated for 18 to 24 hrs by broth microdilution method

SMILES | MIC [1] | Activity [2] | MIC (Enterococcus faecalis [3]) | Activity [4] | MIC (Enterococcus faecium) | MIC (Enterococcus faecalis [5]) | MIC (Staphylococcus aureus [6]) | MIC [7] | MIC (Staphylococcus aureus [8]) | MIC (Staphylococcus aureus [9]) | MIC (Staphylococcus aureus [10]) | MIC (Staphylococcus aureus [11]) | MIC (Staphylococcus hominis)
COc1cc(/C=C/C(=O)O[C@H](C)[C@H]2C(=O)N/C2=C\C(=O)OCc2ccccc2)ccc1O | 8 µg/mL (≈ 18.3 µM) | 0.142 mmolequiv | 8 µg/mL (≈ 18.3 µM) | 0.284 mmolequiv | > 128 µg/mL | > 128 µg/mL | 8 µg/mL (≈ 18.3 µM) | 4 µg/mL (≈ 9.14 µM) | 8 µg/mL (≈ 18.3 µM) | 4 µg/mL (≈ 9.14 µM) | 4 µg/mL (≈ 9.14 µM) | 4 µg/mL (≈ 9.14 µM) | 4 µg/mL (≈ 9.14 µM)
C[C@@H](OC(=O)c1ccc2c(c1)OCO2)[C@H]1C(=O)N/C1=C\C(=O)OCc1ccccc1 | 8 µg/mL (≈ 19.5 µM) | 0.012 mmolequiv | > 128 µg/mL |  | > 128 µg/mL | > 128 µg/mL | 4 µg/mL (≈ 9.77 µM) | 4 µg/mL (≈ 9.77 µM) | 8 µg/mL (≈ 19.5 µM) | 2 µg/mL (≈ 4.89 µM) | 4 µg/mL (≈ 9.77 µM) | 2 µg/mL (≈ 4.89 µM) | 4 µg/mL (≈ 9.77 µM)
C[C@@H](OC(=O)c1ccc(O)cc1)[C@H]1C(=O)N/C1=C\C(=O)OCc1ccccc1 | > 128 µg/mL | 0.007 mmolequiv | > 128 µg/mL | 0.01 mmolequiv | > 128 µg/mL | > 128 µg/mL | > 128 µg/mL | > 128 µg/mL | > 128 µg/mL | 2 µg/mL (≈ 5.24 µM) | > 128 µg/mL | 2 µg/mL (≈ 5.24 µM) | 16 µg/mL (≈ 42 µM)
C[C@@H](OC(=O)/C=C/c1ccccc1O)[C@H]1C(=O)N/C1=C\C(=O)OCc1ccccc1 | > 128 µg/mL | 0.002 mmolequiv | > 128 µg/mL | 0.143 mmolequiv | > 128 µg/mL | > 128 µg/mL | > 128 µg/mL | > 128 µg/mL | > 128 µg/mL | 2 µg/mL (≈ 4.91 µM) | > 128 µg/mL | 1 µg/mL (≈ 2.45 µM) | 2 µg/mL (≈ 4.91 µM)
COc1cc(/C=C/C(=O)O[C@H](C)[C@H]2C(=O)N/C2=C\C(=O)OCc2ccccc2)cc(OC)c1O | > 128 µg/mL | 0.191 mmolequiv | > 128 µg/mL | 0.232 mmolequiv | > 128 µg/mL | > 128 µg/mL | 8 µg/mL (≈ 17.1 µM) | > 128 µg/mL | > 128 µg/mL | > 128 µg/mL | 8 µg/mL (≈ 17.1 µM) | 8 µg/mL (≈ 17.1 µM) | 4 µg/mL (≈ 8.56 µM)
C[C@@H](OC(=O)c1ccc(O)c(O)c1)[C@H]1C(=O)N/C1=C\C(=O)OCc1ccccc1 | 16 µg/mL (≈ 40.3 µM) | 2.59 mmolequiv | 128 µg/mL (≈ 322 µM) | 1.3 mmolequiv | 128 µg/mL (≈ 322 µM) | 128 µg/mL (≈ 322 µM) | 4 µg/mL (≈ 10.1 µM) | 16 µg/mL (≈ 40.3 µM) | 4 µg/mL (≈ 10.1 µM) | 16 µg/mL (≈ 40.3 µM) | 8 µg/mL (≈ 20.1 µM) | 16 µg/mL (≈ 40.3 µM) | > 128 µg/mL
C[C@@H](OC(=O)/C=C/c1ccc(O)c(O)c1)[C@H]1C(=O)N/C1=C\C(=O)OCc1ccccc1 | > 128 µg/mL | 1.67 mmolequiv | > 128 µg/mL | 1.03 mmolequiv | > 128 µg/mL | > 128 µg/mL | > 128 µg/mL | > 128 µg/mL | > 128 µg/mL | > 128 µg/mL | > 128 µg/mL | > 128 µg/mL | > 128 µg/mL
CO/N=C(\C(=O)N[C@@H]1C(=O)N2C(C(=O)O)=C(COC(N)=O)CS[C@H]12)c1ccco1 [CEFUROXIME] | 0.5 µg/mL (≈ 1.18 µM) |  | > 128 µg/mL |  | > 128 µg/mL | > 128 µg/mL | 2 µg/mL (≈ 4.71 µM) | 32 µg/mL (≈ 75.4 µM) | 1 µg/mL (≈ 2.36 µM) | 2 µg/mL (≈ 4.71 µM) | 8 µg/mL (≈ 18.9 µM) | > 128 µg/mL | 8 µg/mL (≈ 18.9 µM)
C[C@@H](OC(=O)/C=C/c1ccc2c(c1)OCO2)[C@H]1C(=O)N/C1=C\C(=O)OCc1ccccc1 | > 128 µg/mL |  | > 128 µg/mL |  | > 128 µg/mL | > 128 µg/mL | > 128 µg/mL | > 128 µg/mL | > 128 µg/mL | > 128 µg/mL | > 128 µg/mL | > 128 µg/mL | 128 µg/mL (≈ 294 µM)
C[C@@H](OC(=O)/C=C/c1ccc(O)cc1)[C@H]1C(=O)N/C1=C\C(=O)OCc1ccccc1 | 8 µg/mL (≈ 19.6 µM) | 0.003 mmolequiv | 64 µg/mL (≈ 157 µM) | 0.053 mmolequiv | > 128 µg/mL | > 128 µg/mL | 4 µg/mL (≈ 9.82 µM) | 8 µg/mL (≈ 19.6 µM) | 8 µg/mL (≈ 19.6 µM) | 8 µg/mL (≈ 19.6 µM) | 4 µg/mL (≈ 9.82 µM) | 4 µg/mL (≈ 9.82 µM) | 4 µg/mL (≈ 9.82 µM)
CN[C@H](CC(C)C)C(=O)N[C@H]1C(=O)N[C@@H](CC(N)=O)C(=O)N[C@H]2C(=O)N[C@H]3C(=O)N[C@H](C(=O)N[C@H](C(=O)O)c4cc(O)cc(O)c4-c4cc3ccc4O)[C@H](O)c3ccc(c(Cl)c3)Oc3cc2cc(c3O[C@@H]2O[C@H](CO)[C@@H](O)[C@H](O)[C@H]2O[C@H]2C[C@](C)(N)[C@H](O)[C@H](C)O2)Oc2ccc(cc2Cl)[C@H]1O [VANCOMYCIN] |  |  | 0.25 µg/mL (≈ 0.173 µM) |  | > 128 µg/mL | 2 µg/mL (≈ 1.38 µM) |  |  |  |  |  |  | 1 µg/mL (≈ 0.69 µM)
C[C@@H](OC(=O)c1cccc2c1OCO2)[C@H]1C(=O)N/C1=C\C(=O)OCc1ccccc1 | > 128 µg/mL |  | > 128 µg/mL |  | > 128 µg/mL | > 128 µg/mL | > 128 µg/mL | > 128 µg/mL | > 128 µg/mL | 16 µg/mL (≈ 39.1 µM) | > 128 µg/mL | 2 µg/mL (≈ 4.89 µM) | 8 µg/mL (≈ 19.5 µM)

Reference: ChEMBL document CHEMBL4130476, “4-Alkyliden-azetidinones modified with plant derived polyphenols: Antibacterial and antioxidant properties” (2017)
